Values joined by “and” are separate entries in the source; they are usually repeats but may differ in a detail not shown here. Equal entries are not always repeated. Where two headings read alike, the source gives them in different places.
Key:
human topoisomerase I = molecular target: T1, human topoisomerase I (Homo sapiens, UniProt P11387); assay: Topo I cleavage assay (plasmid YEpG DNA); format: biochemical; conditions: for Topo I-mediated DNA cleavage (REC, Relative Effective Concentration): concentration relative to camptothecin (CPT) = 1 producing the same cleavage on the plasmid DNA
T1 construct: 15 amino acid vector-derived fusion (pET-11a leader); made in house; host or cells: E. coli BL21(DE3)
T1 sequence (P11387 1-765): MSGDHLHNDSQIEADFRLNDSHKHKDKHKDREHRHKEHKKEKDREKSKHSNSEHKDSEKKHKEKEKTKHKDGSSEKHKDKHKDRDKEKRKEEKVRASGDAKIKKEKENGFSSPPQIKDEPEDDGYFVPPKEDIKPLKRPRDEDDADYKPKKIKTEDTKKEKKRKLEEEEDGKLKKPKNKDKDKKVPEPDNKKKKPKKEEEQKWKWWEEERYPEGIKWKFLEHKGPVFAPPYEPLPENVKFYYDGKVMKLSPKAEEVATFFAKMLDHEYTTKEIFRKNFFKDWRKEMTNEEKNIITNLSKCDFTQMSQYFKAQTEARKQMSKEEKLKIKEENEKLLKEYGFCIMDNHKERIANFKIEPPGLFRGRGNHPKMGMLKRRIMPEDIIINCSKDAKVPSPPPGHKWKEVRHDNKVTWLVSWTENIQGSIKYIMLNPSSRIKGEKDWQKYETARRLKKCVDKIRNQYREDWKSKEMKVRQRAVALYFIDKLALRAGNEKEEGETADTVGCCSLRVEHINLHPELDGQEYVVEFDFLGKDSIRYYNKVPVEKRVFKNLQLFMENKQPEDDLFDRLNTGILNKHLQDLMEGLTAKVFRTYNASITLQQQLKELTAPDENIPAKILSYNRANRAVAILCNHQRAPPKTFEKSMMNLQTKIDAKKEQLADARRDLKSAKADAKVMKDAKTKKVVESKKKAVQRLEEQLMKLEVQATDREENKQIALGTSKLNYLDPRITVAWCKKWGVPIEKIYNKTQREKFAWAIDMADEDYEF
From the text: To obtain large quantity of human topoisomerase I, the human topoisomerase I cDNA was cloned into the pET-11a vector, in which transcription of the cDNA is under the control of the inducible T7 promoter (Studier et al., Methods in Enzymol., Vol. 185:60-89, San Diego: Academic Press (1990)). Briefly, a 3.4 kb DNA fragment containing the entire coding sequence of human topoisomerase I and approximately 1 kb of untranslated region downstream of the stop codon was isolated from the plasmid YCpGAL1-hTOP1 (Bjornsti et al., Cancer Res. 49:6318-6323 (1989)) by cutting at the BamHI and EcoRI sites. The vector pET-11a was cut with the same restriction enzymes, dephosphorylated and ligated to the insert in the proper reading-frame downstream of the vector cloning site. The ligation mixture was used to transform E. coli, the correct clone pET1B was isolated (see figure 2A for the map) and its identity confirmed by restriction mapping. Since the translational start in pET is positioned at an upstream NdeI site, the expressed topoisomerase I has a 15 amino acid fusion at its N-terminus. pET1B was then transformed into E. coli BL21(DE3), and, upon induction with 0.4 mM IPTG for 1 hour, the bacterial lysate was analyzed by 10 % SDS-PAGE. Expression was confirmed by Western blotting using rabbit antibodies against human topoisomerase I. Isolation of the expressed protein was done by a simple procedure. Briefly, E. coli cells were lysed by repeated sonic bursts. The sonic extract was made in 1 M NaCl and 6% polyethylene glycol (PEG) to remove nucleic acids. The PEG supernatant was chromatographed directly on a hydroxyapatite column. Expressed human DNA topoisomerase I was eluted at the 0.6 M potassium phosphate step. The eluted enzyme was dialyzed against 50% glycerol, 30 mM potassium phosphate (pH 7.0), 1 mM dithiothreitol (DTT) and 0.1 mM EDTA and stored at -20°C.
(§1) Cleavage assays for the recombinant topoisomerases I and calf thymus topoisomerases I and II were done as described (Liu et al., J. Biol. Chem. 258:15365-15370 (1983)). The plasmid YEpG DNA used for the cleavage assays was prepared and labeled at its 3'-end using the published procedures.

[1] = tested on: calf thymus topoisomerase II; assay: Topo II cleavage assay (plasmid YEpG DNA); format: biochemical; conditions: concentration relative to VM-26 = 1 producing the same cleavage on the plasmid DNA
From the text: The plasmid pET11a and the E. coli strain BL21(DE3) used for enzyme expression were purchased from Novagen. IPTG was purchased from Sigma. The ECL system used for the Western blotting analysis of bacterial lysates was from Amersham (UK). All the restriction enzymes and Vent polymerase were from New England Biolabs. Mammalian topoisomerase II was isolated from calf thymus glands according to the published procedure (Halligan et al., J. Biol. Chem. 260:2475-2482 (1985)). The single copy yeast plasmids YCpGAL1 expressing various topoisomerase I genes in JN2-134 yeast strain were a kind gift of Dr. M-A. Bjornsti (Thomas Jefferson University, Philadelphia, PA). All bacterial and yeast media were from Difco (Detroit, MI), while cell culture media were purchased from Gibco-BRL (Gaithersburg, MD).
as §1

[2] = tested on: camptothecin-resistant CPT-K5 cells; assay: MTT-microtiter plate tetrazolinium cytotoxicity assay (MTA), camptothecin-resistant cells
Procedure: The IC50 of the drugs tested were determined by the MTT-microtiter plate tetrazolinium cytotoxicity assay (MTA) (Mosmann, T., J. Immunol. Methods 65:55-63 (1983); Denizot et al., J. Immunol. Methods 89:271-277 (1986)). Human lymphoblast RPMI 8402 cells and their camptothecin-resistant CPT-K5 cells (Andoh et al., Proc. Natl. Acad. Sci., USA 84:5565-5569 (1987)) were kindly provided by Dr. Toshiwo Andoh (Aichi Cancer Center Research Institute, Nagoya, Japan). […] Cells (2000 cells/well, seeded in […] growth medium) were grown in suspension at 37°C in 5% CO2 and maintained by regular passage in RPMI medium supplemented with 10% heat inactivated fetal bovine serum, L-glutamine (2 mM), penicillin (100 U/ml), and streptomycin (0.1 mg/ml). The cells were exposed continuously for 4 days to different drug concentrations, and assayed at the end of the fourth day. Each concentration and the no drug control were repeated at least twice in 6 replica wells. The results were plotted and the IC50 then measured. The drug sensitive human epidermoid carcinoma KB 3-1 cell line and its vinblastine-selected multidrug-resistant variant KB-V1 cells (Akiyama et al., Genetics 11:117-126 (1985)) were kindly provided by Dr. Michael Gottesmann (National Cancer Institute). They were grown as monolayer cultures at 37°C in 5% CO2 and maintained by regular passage in Dulbecco's minimal essential medium supplemented with 10% heat inactivated fetal bovine serum. KB-V1 cells were maintained in the presence of […] vinblastine.

[3] = tested on: Human lymphoblast RPMI 8402 cells; assay: MTT-microtiter plate tetrazolinium cytotoxicity assay (MTA); format: cell-based
From the text: The results were plotted and the IC50 then measured.

[4] = Homo sapiens, CPT-K5, 96 h, read-out: Cytotoxicity IC50 CPT-K5
[5] = Homo sapiens, RPMI 8402, 96 h, read-out: Cytotoxicity IC50 RPMI

Compound | Topo I-mediated DNA cleavage (REC, Relative Effective Concentration) (human topoisomerase I) | EC (total cleavage) (human topoisomerase I; read-out: concentration giving total cleavage of DNA in the presence of topoisomerase I) | Topo II-mediated DNA cleavage (REC, Relative Effective Concentration) [1] | IC50 ([2]; cpt-k5 cells, 96 h) [µM] | cytotoxicity against RPMI 8402 cells (in words) [3] | IC50 ([3]; rpmi 8402 cells, 96 h) [µM] | IC50 [2, 4] [µM] | IC50 [3, 5] [µM] | IC50 ([3]; Homo sapiens, RPMI 8402, 96 h, 4 days of continuous drug exposure, read-out: Cytotoxicity IC50 RPMI) [µM]
6,7-Dihydroxy-1,2-dimethyl-3-(3, 4-dihydroxyphenyl)isoquinolinium methosulfate [Compound 15] | 1000 | – | >1000 | > 122 | appreciable cytotoxicity | 7.3 | – | – | –
8-Methyl-2,3,10,11-Tetramethoxydibenzo[a,g]quinolizinium acetosulfate [Compound 2a] | 10 | – | >1000 | 20 | – | 4.9 | – | – | –
8-Methyl-3,4,10,11-tetramethoxydibenzo[a,g]quinolizinium acetosulfate [Compound 2b] | >1000 | – | 100 | 2 | – | 0.4 | – | – | –
COc1cc2cc3c4ccc5c(c4cc[n+]3c(C)c2cc1OC)OCO5 [Compound 2c, 8-Methyl-3,4-methylenedioxy-10,11-dimethoxydibenzo[a,g]quinolizinium acetosulfate] | 10 | – | 10 | – | – | – | 41 | 2 | –
COc1cc2c(cc1OC)-c1cc3cc(OC)c(OC)cc3c(C)[n+]1CC2 [Compound 7a, 5,6-Dihydro-8-methyl-2,3,10,11-tetramethoxydibenzo[a,g]quinolizinium acetosulfate] | 5 | – | >1000 | – | – | – | > 20 | 5.9 | –
COc1cc2cc3[n+](c(C)c2cc1OC)CCc1c-3ccc(OC)c1OC [Compound 7b, 5,6-Dihydro-8-methyl-3,4,10,11-tetramethoxydibenzo[a,g]quinolizinium acetosulfate] | 1000 | – | 1000 | – | – | – | 14 | 6.9 | –
COc1cc2c(cc1OC)-c1cc3cc(OC)c(OC)cc3c[n+]1CC2.[Cl-] [Compound 8a, 5,6-Dihydro-2,3,10,11-tetramethoxydibenzo[a,g]quinolizinium chloride] | 20 | – | >1000 | – | – | – | 18 | 10 | –
COc1cc2cc3[n+](cc2cc1OC)CCc1c-3ccc(OC)c1OC.[Cl-] [Compound 8b, 5,6-Dihydro-3,4,10,11-tetramethoxydibenzo[a,g]quinolizinium chloride] | >1000 | – | 1000 | – | – | – | 6.4 | 9 | –
COc1cc2cc3[n+](cc2cc1OC)CCc1c-3ccc2c1OCO2.[Cl-] [Compound 8c, 5,6-Dihydro-3,4-methylenedioxy-10,11-dimethoxydibenzo[a,g]quinolizinium chloride] | 1 | 0.27 µM and 0.1 µg/mL | 50 | – | – | – | 27 | 8.1 | –
COc1ccc(Cc2nccc3cc(OC)c(OC)cc23)cc1OC [Compound 9a] | >1000 | – | 1000 | – | – | – | 29 | – | 24

More lines, main results first:

Topo I-mediated DNA cleavage (REC, Relative Effective Concentration) (human topoisomerase I) | EC (total cleavage) (human topoisomerase I; read-out: concentration giving total cleavage of DNA in the presence of topoisomerase I) | Compound | Topo II-mediated DNA cleavage (REC, Relative Effective Concentration) [1] | IC50 ([2]; cpt-k5 cells, 96 h) [µM] | cytotoxicity against RPMI 8402 cells (in words) [3] | IC50 ([3]; rpmi 8402 cells, 96 h) [µM] | IC50 [2, 4] [µM] | IC50 [3, 5] [µM] | IC50 ([3]; Homo sapiens, RPMI 8402, 96 h, 4 days of continuous drug exposure, read-out: Cytotoxicity IC50 RPMI) [µM]
1000 | – | 6,7-Dimethoxy-1,2-dimethyl-3-(3, 4-methylenedioxyphenyl)isoquinolinium methosulfate [Compound 14b] | 1000 | 11 | appreciable cytotoxicity | 6.7 | – | – | –
>1000 | – | 6,7-Dimethoxy-1, 2-dimethyl-3-(3, 4-dimethoxyphenyl)isoquinolinium methosulfate [Compound 14a] | >1000 | 39 | – | 43 | – | – | –
>1000 | – | COc1ccc(Cc2nccc3c(OC)c(OC)ccc23)cc1OC.Cl [Compound 9b, 5,6-Dimethoxy-1-(3,4-dimethoxybenzyl)isoquinoline hydrochloride] | 1000 | – | – | – | 15 | 15 | –
>1000 | – | COc1ccc(Cc2nccc3c4c(ccc23)OCO4)cc1OC [Compound 9c, 5,6-Methylenedioxy-1-(3,4-dimethoxybenzyl)isoquinoline] | >1000 | – | appreciable cytotoxicity | – | 15 | 9.3 | –
1000 | – | COc1cc2cc3c4cc(OC)c(OC)cc4cc[n+]3cc2cc1OC.[Cl-] [Compound 10a, 2,3,10,11-Tetramethoxydibenzo[a,g]quinolizinium chloride] | 10 | – | – | – | > 32 | 13 | –
>1000 | – | COc1ccc(-c2cc3cc(OC)c(OC)cc3c(C)n2)cc1OC [Compound 12a, 6,7-Dimethoxy-1-methyl-3-(3,4-dimethoxyphenyl)isoquinoline] | – | – | – | – | 24 | 13 | –
